The assay has as its target IL-23R pathway in STAT3-Luc reporter DB cells (Homo sapiens, UniProt Q5VWK5). The assay is described as follows: Cell-based STAT3-Luc reporter DB cell assay (DB-Luc), inhibition of IL-23. As for the experimental part:
The Cignal STAT3 reporter (SA Biosciences, CCS-9028L), designed to measure the transcriptional activity of STAT3 homodimers, was transiently transfected into the DB cells. The stably transfected STAT3-Luc reporter clone was selected using 200 ng/ml of Hygromycin B.
The stably transfected STAT3-Luc reporter DB cells (0.5×10^6) were cultured in 100 μl of RPMI+10% FBS. IL-23 was added to the cells and incubated at 37° C. for 4 hours. Luciferase activity was measured using Dual-Glo luciferase assay system (Promega).
The isolated cyclic polypeptide no. 23.15-Fc fusion protein and cyclic polypeptide no. 23.19 were used in a cell-based assay to measure the IC50 values. The stably transfected STAT3-Luc reporter DB cells (0.5×10^6) were cultured in 100 μl of RPMI+10% FBS. The cells were pre-incubated with different concentration of isolated cyclic polypeptide no. 23.15-Fc fusion protein or polypeptide no. 23.19 for 30 minutes at 37° C. 50 ng/ml of IL-23 was added to the cells and incubated at 37° C. for an additional 4 hours. Luciferase activity was measured using Dual-Glo luciferase assay system (Promega). The IC50 values of isolated cyclic polypeptide no. 23.15-Fc fusion protein and cyclic polypeptide no. 23.19 are 2.5 μM and 2.5 μM respectively.
The isolated peptide no. 7 (SEQ ID NO: 156) and peptide no. 23.19 (SEQ ID NO: 130) (it is a cyclic version of the polypeptide no. 23.15) were used in a cell based assay to compare their inhibitory activity. The stably transfected STAT3-Luc reporter DB cells (0.5×10^6) were cultured in 100 μl of RPMI+10% FBS. The cells were pre-incubated with two different concentrations (10 μM and 2 μM) of isolated peptides for 30 minutes at 37° C. 50 ng/ml of IL-23 was added to the cells and incubated at 37° C. for an additional 4 hours. Luciferase activity was measured using Dual-Glo luciferase assay system (Promega). The inhibitory activity of isolated peptide no. 7 (SEQ ID NO: 156) is better than that of peptide no. 23.19 (SEQ ID NO: 130) (a cyclic version of polypeptide no. 23.15 (SEQ ID NO: 126) (See, FIG. 62).
DB cells express IL-23R on the cell surface. In addition, IL-23 stimulated the DB cells through the activation of STAT3 by phosphorylation (p-STAT3) (Example 7 (Figures. 14 and 15)). Based on these observations, DB cells were used to develop a cell-based assay to measure the inhibitory activity of peptide and peptide-Fc fusion protein in the IL-23R pathway. […]
The Cignal STAT3 reporter (SA Biosciences, CCS-9028L), which is designed to measure the transcriptional activity of STAT3 homodimers, was transiently transfected into the DB cells. The stably transfected STAT3-Luc reporter clone was selected using 200 ng/ml of Hygromycin B. The activity of IL-23R pathway can be measured by the transcriptional activity of STAT3 homodimers. […]

Entries after “also recorded” stand apart in the source; their conditions may differ. Read-outs that look alike come from different tables or passages of the source. Peptide text beside a SMILES is read from it.

Sequence of IL-23R pathway in STAT3-Luc reporter DB cells (Q5VWK5 24-629 limits assumed): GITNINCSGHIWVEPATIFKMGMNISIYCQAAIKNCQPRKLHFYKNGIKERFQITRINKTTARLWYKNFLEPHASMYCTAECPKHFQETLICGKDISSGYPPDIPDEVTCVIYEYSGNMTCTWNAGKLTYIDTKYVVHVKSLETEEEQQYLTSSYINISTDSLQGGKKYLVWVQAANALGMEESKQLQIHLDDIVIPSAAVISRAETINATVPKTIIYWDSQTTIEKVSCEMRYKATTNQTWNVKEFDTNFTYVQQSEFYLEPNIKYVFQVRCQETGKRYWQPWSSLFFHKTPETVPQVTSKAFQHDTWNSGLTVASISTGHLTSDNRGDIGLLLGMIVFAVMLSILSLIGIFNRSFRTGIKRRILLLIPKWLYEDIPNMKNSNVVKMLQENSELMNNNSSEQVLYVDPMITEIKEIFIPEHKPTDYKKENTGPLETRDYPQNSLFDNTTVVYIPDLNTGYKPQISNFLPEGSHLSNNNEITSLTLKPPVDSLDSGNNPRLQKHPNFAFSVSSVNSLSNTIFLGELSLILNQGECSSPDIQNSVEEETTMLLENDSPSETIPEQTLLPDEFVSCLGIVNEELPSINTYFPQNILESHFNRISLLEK

As usually defined, the IC50 is the concentration that inhibits the measured activity by half. As to `CSCC[C@@H]1NC(=O)[C@H](CCCCN)NC(=O)[C@H](C)NC(=O)[C@H](C)NC(=O)[C@H](CS)NC(=O)[C@H](CC(N)=O)NC(=O)[C@H](CCCCN)NC(=O)[C@H](CC(C)C)NC(=O)[C@H](Cc2c[nH]c3ccccc23)NC(=O)[C@H](Cc2ccc(O)cc2)NC(=O)[C@H](CC(=O)O)NC(=O)[C@H](C(C)C)NC(=O)[C@H](Cc2c[nH]c3ccccc23)NC(=O)[C@H]([C@@H](C)O)NC1=O` [2HT AA] (cyclo(AAKMTWVDYWLKNC)), the “inhibitory activity in cell-based DB-Luc assay” value (cyclic vs linear peptides) is “did not eliminate the inhibitory activity; also recorded: best inhibitory activity”. Further, the IC50 (procedure of Example 29, read-out: IC50, cell-based DB-Luc assay) was 0.342 µM. `CSCC[C@@H]1NC(=O)[C@H](C)NC(=O)[C@@H](N)CSSC[C@@H](C(=O)O)NC(=O)[C@H](CCCNC(=N)N)NC(=O)CNC(=O)[C@H](Cc2ccc(O)cc2)NC(=O)[C@H](CC(C)C)NC(=O)[C@H](Cc2c[nH]c3ccccc23)NC(=O)[C@H](Cc2ccc(O)cc2)NC(=O)[C@H](CC(=O)O)NC(=O)[C@H](CCC(N)=O)NC(=O)[C@H](Cc2c[nH]c3ccccc23)NC(=O)[C@H]([C@@H](C)O)NC1=O` [23.19]: the IC50 (50 ng/ml IL-23, 4 hours, read-out: IC50, cell-based STAT3-Luc assay) was 2.5 µM.

The record behind these values is US9605027B2, “Polypeptides that bound to IL-23 receptor and inhibit binding of IL-23 and cell signaling thereof” (Medical Diagnostic Laboratories, LLC, priority 2011, dated 2017).
